Experimental data: US20050124562A1, “Bis-quinazoline compounds for the treatment of bacterial infections” (priority 2003, published 2005)
Converted amounts (≈) assume the structure as drawn. Where two headings read alike, the source gives them in different places.

Tests used:
Format in all cases: cell-based
[1] = system: S. aureus, E. faecalis, S. pyogenes and S. pneumoniae; assay: Broth microdilution MIC (NCCLS), gram-positive strains
Procedure, shortened: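 MICs by broth microdilution per NCCLS M-7 A-6 against ATCC strains, including ORSA and VRE; MBCs determined for selected organisms. Serum effect assessed by repeating MIC tests with human serum present.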

M. catarrhalis = assay: Broth microdilution MIC (NCCLS), M. catarrhalis; conditions: Moraxella catarrhalis, read-out: MIC range
Description: (§1) Representative bis-quinazolines were tested for antibacterial activity using the […] microdilution method to determine their minimum inhibitory concentrations (MICs). All compounds were tested using standard methods in accordance with NCCLS guidelines (National Committee for Clinical Laboratory Standards. 2003. Methods for dilution antimicrobial susceptibility testing for bacteria that grow aerobically. Approved Standard M-7 A-6, NCCLS, Wayne, Pa.). The bacterial strains used in the susceptibility tests were obtained from the American Type Culture Collection (ATCC) and included resistant phenotypes such as oxacillin-resistant S. aureus (ORSA) and vancomycin-resistant enterococci (VRE). The minimum bactericidal concentrations (MBCs) were determined for selected organisms. The effect of protein binding on the antibacterial activity of representative bis-quinazolines were determined by conducting MIC tests in the presence of human serum.

H. influenzae = assay: Broth microdilution MIC (NCCLS), H. influenzae; conditions: Haemophilus influenzae; some strains of H. influenzae
Description: as §1

[2] = system: efflux mutants of E. coli; assay: Broth microdilution MIC (NCCLS), E. coli efflux mutants; conditions: Escherichia coli, read-out: MICs
Description: as §1

[3] = system: efflux mutants of P. aeruginosa; assay: Broth microdilution MIC (NCCLS), P. aeruginosa efflux mutants; conditions: Pseudomonas aeruginosa, read-out: MICs
Description: as §1

[4] = range against some strains of S. aureus, E. faecalis, S. pyogenes and S. pneumoniae, read-out: MIC

| Structure (SMILES) | MIC [1, 4] | MIC (M. catarrhalis; some strains of M. catarrhalis) | MIC (H. influenzae) | MIC [2] | MIC [3] | MIC [1] | MIC (M. catarrhalis) |
| --- | --- | --- | --- | --- | --- | --- | --- |
| COc1cc2nc(Nc3nc(O)c4cc(OCCN5CCCCC5)ccc4n3)nc(C)c2cc1OC.O=C(O)C(F)(F)F [Example 145, 2-(6,7-Dimethoxy-4-methyl-quinazolin-2-ylamino)-6-(2-piperidin-1-yl-ethoxy)-quinazolin-4-ol trifluoroacetate salt] | 0.06 to 16 µg/mL | 2 to 64 µg/mL | 16 to 32 µg/mL | 16 to 64 µg/mL | 64 µg/mL | – | – |
| COc1cc2nc(Nc3nc(O)c4cc(OCCN(C)C)ccc4n3)nc(C)c2cc1OC.O=C(O)C(F)(F)F [Example 146, 2-(6,7-Dimethoxy-4-methyl-quinazolin-2-ylamino)-6-(2-dimethylamino-ethoxy)-quinazolin-4-ol trifluoroacetate salt] | 0.06 to 16 µg/mL | 2 to 64 µg/mL | 16 to 32 µg/mL | 16 to 64 µg/mL | 64 µg/mL | – | – |
| COc1cc2nc(Nc3nc(O)c4cc(OCCN5CCN(C)CC5)ccc4n3)nc(C)c2cc1OC.O=C(O)C(F)(F)F [Example 147, 2-(6,7-Dimethoxy-4-methyl-quinazolin-2-ylamino)-6-[2-(4-methyl-piperazin-1-yl)-ethoxy]-quinazolin-4-ol trifluoroacetate salt] | 0.06 to 16 µg/mL | 2 to 64 µg/mL | 16 to 32 µg/mL | 16 to 64 µg/mL | 64 µg/mL | – | – |
| COc1cc2nc(Nc3nc(O)c4cc(OCCN5CCCC5)ccc4n3)nc(C)c2cc1OC.O=C(O)C(F)(F)F [Example 148, 2-(6,7-Dimethoxy-4-methyl-quinazolin-2-ylamino)-6-(2-pyrrolidin-1-yl-ethoxy)-quinazolin-4-ol trifluoroacetate salt] | 0.06 to 16 µg/mL | 2 to 64 µg/mL | 16 to 32 µg/mL | 16 to 64 µg/mL | 64 µg/mL | – | – |
| CCN(CC)CCOc1ccc2nc(Nc3nc(C)c4cc(OC)c(OC)cc4n3)nc(O)c2c1.O=C(O)C(F)(F)F [Example 149, 6-(2-Diethylamino-ethoxy)-2-(6,7-dimethoxy-4-methyl-quinazolin-2-ylamino)-quinazolin-4-ol trifluoroacetate salt] | 0.06 to 16 µg/mL | 2 to 64 µg/mL | 16 to 32 µg/mL | 16 to 64 µg/mL | 64 µg/mL | – | – |
| COc1cc2nc(Nc3nc(O)c4cc(OCCCN5CCCC5)ccc4n3)nc(C)c2cc1OC.O=C(O)C(F)(F)F [Example 151, 2-(6,7-Dimethoxy-4-methyl-quinazolin-2-ylamino)-6-(3-pyrrolidin-1-yl-propoxy)-quinazolin-4-ol trifluoroacetate salt] | 0.06 to 16 µg/mL | 2 to 64 µg/mL | 16 to 32 µg/mL | 16 to 64 µg/mL | 64 µg/mL | – | – |
| COc1cc2nc(Nc3nc(O)c4cc(OCCN5CCC(O)C5)ccc4n3)nc(C)c2cc1OC.O=C(O)C(F)(F)F (centres unmarked) [Example 154, 2-(6,7-Dimethoxy-4-methyl-quinazolin-2-ylamino)-6-[2-(3-hydroxy-pyrrolidin-1-yl)-ethoxy]-quinazolin-4-ol trifluoroacetate salt] | 0.06 to 16 µg/mL | 2 to 64 µg/mL | 16 to 32 µg/mL | 16 to 64 µg/mL | 64 µg/mL | – | – |
| COc1cc2nc(Nc3nc(O)c4cc(OCCN5CCCC(O)C5)ccc4n3)nc(C)c2cc1OC.O=C(O)C(F)(F)F (centres unmarked) [Example 157, 2-(6,7-Dimethoxy-4-methyl-quinazolin-2-ylamino)-6-[2-(3-hydroxy-piperidin-1-yl)-ethoxy]-quinazolin-4-ol trifluoroacetate salt] | 0.06 to 16 µg/mL | 2 to 64 µg/mL | 16 to 32 µg/mL | 16 to 64 µg/mL | 64 µg/mL | – | – |
| COc1cc2nc(Nc3nc(O)c4cc(OCCN(CCO)CCO)ccc4n3)nc(C)c2cc1OC.O=C(O)C(F)(F)F [Example 158, 6-{2-[Bis-(2-hydroxy-ethyl)-amino]-ethoxy}-2-(6,7-dimethoxy-4-methyl-quinazolin-2-ylamino)-quinazolin-4-ol trifluoroacetate salt] | 0.06 to 16 µg/mL | 2 to 64 µg/mL | 16 to 32 µg/mL | 16 to 64 µg/mL | 64 µg/mL | – | – |
| CCN(CCO)CCOc1ccc2nc(Nc3nc(C)c4cc(OC)c(OC)cc4n3)nc(O)c2c1.O=C(O)C(F)(F)F [Example 159, 2-(6,7-Dimethoxy-4-methyl-quinazolin-2-ylamino)-6-{2-[ethyl-(2-hydroxy-ethyl)-amino]-ethoxy}-quinazolin-4-ol trifluoroacetate salt] | 0.06 to 16 µg/mL | 2 to 64 µg/mL | 16 to 32 µg/mL | 16 to 64 µg/mL | 64 µg/mL | – | – |
| COc1cc(OC)c2nc(Nc3nc(O)c4cc(OCCN5CCC(O)C5)ccc4n3)nc(C)c2c1.O=C(O)C(F)(F)F (centres unmarked) [Example 160, 2-(6,8-Dimethoxy-4-methyl-quinazolin-2-ylamino)-6-[2-(3-hydroxy-pyrrolidin-1-yl)-ethoxy]-quinazolin-4-ol trifluoroacetate salt] | 0.06 to 16 µg/mL | 2 to 64 µg/mL | 16 to 32 µg/mL | 16 to 64 µg/mL | 64 µg/mL | – | – |
| COc1cc2nc(Nc3nc(O)c4cc(OCCNCCO)ccc4n3)nc(C)c2cc1OC.O=C(O)C(F)(F)F [Example 161, 2-(6,7-Dimethoxy-4-methyl-quinazolin-2-ylamino)-6-[2-(2-hydroxy-ethylamino)-ethoxy]-quinazolin-4-ol trifluoroacetate salt] | 0.06 to 16 µg/mL | 2 to 64 µg/mL | 16 to 32 µg/mL | 16 to 64 µg/mL | 64 µg/mL | – | – |
| COc1cc2nc(Nc3nc(O)c4cc(OCCN5CCC(N)C5)ccc4n3)nc(C)c2cc1OC (centres unmarked) [Example 163, 6-[2-(3-Amino-pyrrolidin-1-yl)-ethoxy]-2-(6,7-dimethoxy-4-methyl-quinazolin-2-ylamino)-quinazolin-4-ol] | – | – | 16 to 32 µg/mL (≈ 32.5 to 65.1 µM) | 16 to 64 µg/mL (≈ 32.5 to 130 µM) | 64 µg/mL (≈ 130 µM) | 0.06 to 16 µg/mL (≈ 0.122 to 32.5 µM) | 2 to 64 µg/mL (≈ 4.07 to 130 µM) |
| COc1cc2nc(Nc3nc(O)c4cc(OCCN5CCCC5CO)ccc4n3)nc(C)c2cc1OC.O=C(O)C(F)(F)F (centres unmarked) [Example 164, 2-(6,7-Dimethoxy-4-methyl-quinazolin-2-ylamino)-6-[2-(2-hydroxymethyl-pyrrolidin-1-yl)-ethoxy]-quinazolin-4-ol trifluoroacetate salt] | 0.06 to 16 µg/mL | 2 to 64 µg/mL | 16 to 32 µg/mL | 16 to 64 µg/mL | 64 µg/mL | – | – |
| COc1cc2nc(Nc3nc(O)c4cc(OCCNC(CO)CO)ccc4n3)nc(C)c2cc1OC.O=C(O)C(F)(F)F [Example 165, 2-{2[-2-(6,7-Dimethoxy-4-methyl-quinazolin-2-ylamino)-4-hydroxy-quinazolin-6-yloxy]-ethylamino}-propane-1,3-diol trifluoroacetate salt] | 0.06 to 16 µg/mL | 2 to 64 µg/mL | 16 to 32 µg/mL | 16 to 64 µg/mL | 64 µg/mL | – | – |
| COc1cc(OC)c2nc(Nc3nc(O)c4cc(OCCN5CCCC5)ccc4n3)nc(C)c2c1.O=C(O)C(F)(F)F [Example 166, 2-(6,8-Dimethoxy-4-methyl-quinazolin-2-ylamino)-6-(2-pyrrolidin-1-yl-ethoxy)-quinazolin-4-ol trifluoroacetate salt] | 0.06 to 16 µg/mL | 2 to 64 µg/mL | 16 to 32 µg/mL | 16 to 64 µg/mL | 64 µg/mL | – | – |
| COc1cc2nc(Nc3nc(O)c4cc(OCCNC(C)CO)ccc4n3)nc(C)c2cc1OC.O=C(O)C(F)(F)F (centres unmarked) [Example 169, 2-(6,7-Dimethoxy-4-methyl-quinazolin-2-ylamino)-6-[2-(2-hydroxy-1-methyl-ethylamino)-ethoxy]-quinazolin-4-ol trifluoroacetate salt] | 0.06 to 16 µg/mL | 2 to 64 µg/mL | 16 to 32 µg/mL | 16 to 64 µg/mL | 64 µg/mL | – | – |
| COc1cc2nc(Nc3nc(O)c4cc(OCCN5CCOC(CO)C5)ccc4n3)nc(C)c2cc1OC.O=C(O)C(F)(F)F (centres unmarked) [Example 170, 2-(6,7-Dimethoxy-4-methyl-quinazolin-2-ylamino)-6-[2-(2-hydroxymethyl-morpholin-4-yl)-ethoxy]-quinazolin-4-ol trifluoroacetate salt] | 0.06 to 16 µg/mL | 2 to 64 µg/mL | 16 to 32 µg/mL | 16 to 64 µg/mL | 64 µg/mL | – | – |
| CCN(CCOc1ccc2nc(Nc3nc(C)c4cc(OC)c(OC)cc4n3)nc(O)c2c1)CCN(C)C.O=C(O)C(F)(F)F [Example 171, 2-(6,7-Dimethoxy-4-methyl-quinazolin-2-ylamino)-6-{2[(2-dimethylamino-ethyl)-ethyl-amino]-ethoxy}-quinazolin-4-ol trifluoroacetate salt] | 0.06 to 16 µg/mL | 2 to 64 µg/mL | 16 to 32 µg/mL | 16 to 64 µg/mL | 64 µg/mL | – | – |
